From US20250011307A1, “CRYSTALLINE FORMS OF BIARYL YAP/TAZ-TEAD PROTEIN-PROTEIN INTERACTION INHIBITORS” (Novartis AG, priority 2021, published 2025)

Columns and labels:
Format in all cases: physicochemical
[1] = Solubility after equilibration at 25° C. for 24 h, with final pH and XRPD of solid residues; settings: Compound A forms
[2] = Hygroscopicity (loss on drying by TGA and XRPD, as is and after storage at 92% / 80% RH); settings: Compound A forms; for Loss on drying by TGA [%]: TGA temperature per cell: Modification A 110° C., amorphous 119° C., 4-hydroxybenzoate 200° C.
[3] = Excipient compatibility stress test (HPLC degradation products, color); parameters: key to CL color: A: No change; B: Slight discoloration; C: Medium discoloration; D: Strong discoloration; settings: Compound A forms
[4] = Solid state bulk stability stress test (HPLC degradation products, color, XRPD); parameters: key to CL color: A: No change; B: Slight discoloration; C: Medium discoloration; D: Strong discoloration; settings: Compound A forms
[5] = Xenon light stress test of bulk (HPLC degradation products, color, XRPD); parameters: key to CL color: A: No change; B: Slight discoloration; C: Medium discoloration; D: Strong discoloration; settings: Compound A forms, Xenon light (1200 kLuxh, 25° C.)
Experimental: X-ray powder diffraction (XRPD) patterns were obtained using a Bruker Advance D8 in reflection geometry. Powders were analyzed using a zero background Si flat sample holder. The radiation used was Cu Kα (A=1.5418 Å). Patterns were measured between 2° and 40° 2theta. • Sample amount: 5-10 mg • Sample holder: zero background Si flat sample holder
X-ray powder diffraction (XRPD) patterns were obtained using a Bruker Advance D8 in reflection geometry. Powders were analyzed using a zero background Si flat sample holder. The radiation was Cu Kα (λ=1.5418 Å). Patterns were measured between 2° and 40° 2theta. • Sample amount: 5-10 mg • Sample holder: zero background Si flat sample holder

[6] = 2 weeks 50° C./75% RH, 1% in mixture 1
[7] = 2 weeks 50° C./75% RH, 1% in mixture 2
[8] = 2 weeks 50° C./75% RH, 1% in mixture 3
[9] = 2 weeks 50° C./75% RH, HGC capsule powder
[10] = 2 weeks 50° C./75% RH, HPMC capsule powder
[11] = 2 weeks 70° C./11% RH, 1% in mixture 1
[12] = 2 weeks 70° C./11% RH, 1% in mixture 2
[13] = 2 weeks 70° C./11% RH, 1% in mixture 3
[14] = 2 weeks 70° C./11% RH, HGC capsule powder
[15] = 2 weeks 70° C./11% RH, HPMC capsule powder
[16] = 2 weeks 70° C./75% RH, 1% in mixture 1
[17] = 2 weeks 70° C./75% RH, 1% in mixture 2
[18] = 2 weeks 70° C./75% RH, 1% in mixture 3
[19] = 2 weeks 70° C./75% RH, HPC capsule powder
[20] = 2 weeks 70° C./75% RH, HPMC capsule powder

## CNC(=O)c1cnc(OCCO)c(F)c1-c1c(Cl)c(F)cc2c1C[C@](c1ccccc1)([C@@H]1CCCN1)O2 [Compound A Free form Modification A, 4-((2S,4S)-5-Chloro-6-fluoro-2-phenyl-2-((S)-pyrrolidin-2-yl)-2,3-dihydrobenzofuran-4-yl)-5-fluoro-6-(2-hydroxyethoxy)-N-methylnicotinamide]
[1]; FaSSIF V2 pH 6.5
  final pH: (8.07)
[1]; FaSSIF V2 pH 6.5, target concentration 20 mg/10 mL
  Sol. (solubility): ~2, mg/mL
[1]; FeSSIF V2 pH 5.8
  final pH: (5.98)
[1]; FeSSIF V2 pH 5.8, target concentration 20 mg/10 mL
  Sol. (solubility): >2, mg/mL
[1]; SGF pH 2.0
  final pH: (2.39)
[1]; SGF pH 2.0, target concentration 20 mg/10 mL
  Sol. (solubility): >2, mg/mL
[1]; Water
  final pH: (9.12)
[1]; Water, target concentration 20 mg/10 mL
  Sol. (solubility): 0.27, mg/mL
[1]; pH 1.2, 100 mM HCl
  final pH: (1.16)
[1]; pH 1.2, 100 mM HCl, target concentration 20 mg/10 mL
  Sol. (solubility): >2, mg/mL
[1]; pH 3.0, 50 mM citrate buffer
  final pH: (3.10)
[1]; pH 3.0, 50 mM citrate buffer, target concentration 20 mg/10 mL
  Sol. (solubility): >2, mg/mL
[1]; pH 4.7, 50 mM acetate buffer
  final pH: (4.86)
[1]; pH 4.7, 50 mM acetate buffer, target concentration 20 mg/10 mL
  Sol. (solubility): >2, mg/mL
[1]; pH 6.8, 50 mM phosphate buffer
  final pH: (6.95)
[1]; pH 6.8, 50 mM phosphate buffer with 50 mM Na taurocholate
  final pH: (6.91)
[1]; pH 6.8, 50 mM phosphate buffer with 50 mM Na taurocholate, target concentration 20 mg/10 mL
  Sol. (solubility): >2, mg/mL
[1]; pH 6.8, 50 mM phosphate buffer, target concentration 20 mg/10 mL
  Sol. (solubility): >2, mg/mL
[2]; After 1 day at 80% RH
  XRPD: No change
  Loss on drying by TGA [%]: 0.7% (110° C.)
[2]; After 1 day at 92% RH
  XRPD: No change
  Loss on drying by TGA [%]: 1.0% (110° C.)
[2]; Hygroscopicity, before RH storage
  Loss on drying by TGA [%]: 0.4% (110° C.)
[3]; [6]
  CL color: A
  DP[%] degradation products: 1.4%
[3]; [7]
  CL color: A
  DP[%] degradation products: 2.5%
[3]; [8]
  CL color: A
  DP[%] degradation products: 1.4%
[3]; [9]
  CL color: A
  DP[%] degradation products: 1.2%
[3]; [10]
  CL color: A
  DP[%] degradation products: 1.7%
[3]; [11]
  CL color: A
  DP[%] degradation products: 1.3%
[3]; [12]
  CL color: A
  DP[%] degradation products: 1.2%
[3]; [13]
  CL color: A
  DP[%] degradation products: 1.1%
[3]; [14]
  CL color: A
  DP[%] degradation products: 1.2%
[3]; [15]
  CL color: A
  DP[%] degradation products: 1.5%
[3]; [16]
  CL color: gel
  DP[%] degradation products: 6.1%
[3]; [17]
  CL color: gel
  DP[%] degradation products: 7.8%
[3]; [18]
  CL color: gel
  DP[%] degradation products: 11.8%
[3]; [19]
  CL color: gel
  DP[%] degradation products: 3.3%
[3]; [20]
  CL color: gel
  DP[%] degradation products: 6.6%
[4]; 2 weeks 50° C./75% RH
  Bulk (XRPD): No change
  CL color: A
  DP[%] degradation products, Bulk (HPLC): 1.3%
[4]; 2 weeks 80° C., 11% RH
  Bulk (XRPD): No change
  CL color: A
  DP[%] degradation products, Bulk (HPLC): 1.4%
[4]; 2 weeks 80° C./75% RH
  Bulk (XRPD): gel
  DP[%] degradation products, Bulk (HPLC): 12.6%
[5]; amber vial
  Bulk amber vial (XRPD): No change
  CL color: A
  DP[%] degradation products, Bulk amber vial (HPLC): 1.0%
[5]; clear vial
  Bulk clear vial (XPRD): No change
  CL color: B
  DP[%] degradation products, Bulk clear vial (HPLC): 4.1%
